Common to all, as to format: functional
Assay [1] concerns Staphylococcus aureus. The assay can be described thus: Minimum inhibitory concentration against Staphylococcus aureus RN4220.
Another assay has as its system Streptococcus pyogenes. The assay can be described thus: Minimum inhibitory concentration against Streptococcus pyogenes Dig 7.
Assay [2] deals with Staphylococcus aureus. Kind of assay: Minimum inhibitory concentration against Staphylococcus aureus AS5155.

MIC data for nine compounds are collected here from ChEMBL document CHEMBL1144972, “Benzo[f]naphtyridones: a new family of topical antibacterial agents active on multi-resistant Gram-positive pathogens” (2003).

≈ marks a conversion by molar mass, not a printed value.

For the compound `Cn1cc(C(=O)O)c(=O)c2c3ccc(F)c(N4CCN(c5cccc(C(F)(F)F)c5)CC4)c3ncc21`, the results for the MIC in the assay on Staphylococcus aureus [1], against Streptococcus pyogenes and against Staphylococcus aureus [2] were 2 µg/mL (≈ 4 µM), 16 µg/mL (≈ 32 µM) and 4 µg/mL (≈ 7.99 µM), respectively.
Take `Cn1cc(C(=O)O)c(=O)c2c3cc(F)c(N4CCCC(C)(C)C4)cc3ncc21`: the MIC in the assay with Staphylococcus aureus [1], in the assay with Streptococcus pyogenes and against Staphylococcus aureus [2] was 4 µg/mL (≈ 10.4 µM) each time.
`Cn1cc(C(=O)O)c(=O)c2c3cc(N4C[C@@]5(C)C[C@@H]4CC(C)(C)C5)c(F)cc3ncc21`: the MIC turned out to be 2 µg/mL (≈ 4.72 µM) against Staphylococcus aureus [1], 4 µg/mL (≈ 9.45 µM) against Streptococcus pyogenes and 2 µg/mL (≈ 4.72 µM) in the assay on Staphylococcus aureus [2].
In the case of `Cc1ccc(N2CCN(c3cc4c(ncc5c4c(=O)c(C(=O)O)cn5C)c(F)c3Cl)CC2)cc1F`, the MIC in the assay with Staphylococcus aureus [1] worked out at 1 µg/mL (≈ 2 µM); in the assay with Streptococcus pyogenes, 2 µg/mL (≈ 4.01 µM); with Staphylococcus aureus [2] it was 1 µg/mL (≈ 2 µM).
Consider `C[N+](C)(C)CCO.Cn1cc(C(=O)[O-])c(=O)c2cc3cc(F)c(N4CCN(c5ccc(F)cc5)CC4)cc3nc21`, for which the MIC worked out at 0.25 µg/mL against Staphylococcus aureus [1], 0.5 µg/mL with Streptococcus pyogenes and 2 µg/mL against Staphylococcus aureus [2].
As to `Cn1cc(C(=O)O)c(=O)c2c3cc(N4CCN(c5ccc(Cl)c(F)c5)CC4)c(Cl)c(F)c3ncc21`, the minimum inhibitory concentration (MIC) against Staphylococcus aureus [1] amounted to 2 µg/mL (≈ 3.85 µM); against Streptococcus pyogenes it was 16 µg/mL (≈ 30.8 µM); with Staphylococcus aureus [2] it was 1 µg/mL (≈ 1.93 µM).
`Cc1ccc(N2CCN(c3ccc4c(ncc5c4c(=O)c(C(=O)O)cn5C)c3F)CC2)cc1F`: the MIC was 4 µg/mL (≈ 8.61 µM) in the assay with Staphylococcus aureus [1], 16 µg/mL (≈ 34.4 µM) with Streptococcus pyogenes and 2 µg/mL (≈ 4.31 µM) against Staphylococcus aureus [2].
Taken in the same sequence, the figures for `C/C(=C\C(=O)OCCCCCCCCC(=O)O)C[C@@H]1OC[C@H](C[C@@H]2O[C@H]2[C@@H](C)[C@H](C)O)[C@@H](O)[C@H]1O` [MUPIROCIN] were 0.5 µg/mL (≈ 0.999 µM), 0.12 µg/mL (≈ 0.24 µM) and 1 µg/mL (≈ 2 µM).
As for `CCn1cc(C(=O)O)c(=O)c2cc(F)c(N3CCN(C)CC3)cc21` [PEFLOXACIN], the figures for the MIC in the assay with Staphylococcus aureus [1], against Streptococcus pyogenes and in the assay with Staphylococcus aureus [2] were 0.5 µg/mL (≈ 1.5 µM), 8 µg/mL (≈ 24 µM) and 64 µg/mL (≈ 192 µM), respectively.
